“Also recorded” adds a separate entry of the source. Non-standard residues stand in square brackets, D forms with d. Residues, ends and D or L forms follow the SMILES beside them. No end group written: not given here.
How the values were obtained:
PD-1 = target: T1, PD-1 (Homo sapiens, UniProt Q15116); type: binding
T1 construct: comprise the extracellular 37-162, 19-152, 21-141, 24-167 and 20-239 amino acid, respectively, of the mature human ligands domain; purchased R&D Systems; host or cells: mouse myeloma NS0 cells
T1 sequence (Q15116 24-167): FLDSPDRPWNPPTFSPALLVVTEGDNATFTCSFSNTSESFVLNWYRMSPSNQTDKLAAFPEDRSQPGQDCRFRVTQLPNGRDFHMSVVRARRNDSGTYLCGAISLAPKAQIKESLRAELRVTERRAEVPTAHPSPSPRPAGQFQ

[1] = test system: IL2 and IFN-γ mRNA induced by SEB in human PBMC; type: cell-based
[2] = test system: IL2 and IFN-γ mRNA in human PBMC; type: cell-based
[3] = test system: IL10 and IL4 induced by SEB in human PBMC; type: cell-based
[4] = test system: IL2 and IFN-γ mRNA induced by αCD28, αCD3, sB7-2 in human PBMC; type: cell-based
soluble CD28 (sCD28) = target: T2, soluble CD28 (sCD28) (Homo sapiens, UniProt P10747); type: binding
T2 construct: comprise the extracellular 37-162, 19-152, 21-141, 24-167 and 20-239 amino acid, respectively, of the mature human ligands domain; purchased R&D Systems 342-CD; host or cells: mouse myeloma NS0 cells

SEB [5] = target: T3, SEB (Staphylococcus aureus, UniProt P01552); parameters: species or system BALB/c mice; settings: mouse
[6] = mouse, in vivo
[7] = test system: IL2 and IFN-γ mRNA induced by TSST-1 in human PBMC; type: cell-based
sCD28 [8] = target: T4, sCD28 (Homo sapiens, UniProt P10747); test: ELISA: binding of anti-CD28 to immobilized sCD28 in presence of antagonist peptide; settings: 1,000-fold diluted anti-CD28, p14A from 0.1 μg per ml
T4 construct: comprise the extracellular 37-162, 19-152, 21-141, 24-167 and 20-239 amino acid, respectively, of the mature human ligands domain; purchased R&D Systems 342-CD; host or cells: mouse myeloma NS0 cells
Protocol: An amount of 250 ng sCD28 was immobilized on an ELISA microtiter plate and binding of anti-CD28 at the two indicated dilutions (corresponding to 250 and 125 ng/ml, respectively) was measured by use of a secondary antibody coupled to alkaline phosphatase, recording absorbency at 450 nm. p14A was either absent (Control) or present at the indicated concentrations. Abbreviations: bin. (binding), Un. (units), cont. (control), ml (milliliter), μg (microgram), α (anti).
Yet another assay was devised to show a direct interaction between antagonist peptide and sCD28. The inventors developed an enzyme-linked immune sorbent assay (ELISA) in which sCD28 is immobilized in the wells of a microtiter ELISA plate and binding of anti-CD28 is measured by use of a secondary antibody coupled to alkaline phosphatase. It is seen in FIG. 16 that binding of 1,000-fold diluted anti-CD28 to the plate was inhibited by p14A even at a concentration of only 0.1 μg per ml. […] Thus, antagonist peptide p14A is a powerful inhibitor of the interaction between anti-CD28 and sCD28.

sCD28 [9] = target: T4, sCD28; type: binding
sCD28/sB7-2 = target: T5, sCD28/sB7-2 (Homo sapiens, UniProt P10747); type: binding
T5 construct: comprise the extracellular 37-162, 19-152, 21-141, 24-167 and 20-239 amino acid, respectively, of the mature human ligands domain; purchased R&D Systems 342-CD (sCD28); host or cells: mouse myeloma NS0 cells

IL10 in human PBMC = type: cell-based
SEB [10] = target: T3, SEB
p14A = type: binding
SEB [11] = target: T3, SEB; remark: listed apart in the source

## CC(C)C[C@H](NC(=O)[C@H](CCC(=O)O)NC(=O)[C@H](CCC(N)=O)NC(=O)[C@@H](NC(=O)[C@@H](NC(=O)[C@H](C)NC(=O)[C@H](CCCCN)NC(=O)[C@H](CCCCN)NC(=O)[C@H](CCCCN)NC(=O)[C@H](CC(N)=O)NC(=O)[C@H](Cc1ccc(O)cc1)NC(=O)[C@@H](N)CS)[C@@H](C)O)C(C)C)C(=O)N[C@@H](CC(=O)O)C(=O)N[C@@H](CS)C(=O)O [p12C] (H-CYNKKKATVQELDC-OH)
PD-1
  binding of PD-1 to immobilized peptide: failed to bind significantly
[1]
  antagonism of SEB-mediated induction of IL2 and IFN-γ mRNA: as active as p14A

## AAAAAAAAAAMYPPPY [control peptide containing another motif in the sCD28 molecule, reference compound]
[1]
  antagonism of SEB-mediated induction of IL2 and IFN-γ mRNA: did not show antagonist activity
[2]
  induction of Th1 cytokine mRNA by the substance alone (agonist activity): Neither pTA nor AAAAAAAAAAMYPPPY (SEQ ID NO: 7) alone were active as inducer

## AAAAAAAHVKGKHLCP [pTA]
[1]
  antagonism of SEB-mediated induction of IL2 and IFN-γ mRNA: blocked
[3]
  effect on SEB-mediated induction of IL10 / IL4 (Th2 response): left the induction of IL10 and IL4 intact
[2]
  induction of Th1 cytokine mRNA by the substance alone (agonist activity): Neither pTA nor AAAAAAAAAAMYPPPY (SEQ ID NO: 7) alone were active as inducer
[4]
  effect on induction of IL2/IFN-γ mRNA by αCD28 alone: inhibited

## APMYHKHRLEKH (Synthetic peptide pe6)
[1]
  antagonism of SEB-mediated induction of IL2 and IFN-γ mRNA: inhibited

## C-EKAKYTQLVKDN-C (CEKAKYTQLVKDNC; terminal cysteines; Sequence of artificial peptide p12Csc) [randomly scrambled p12C, reference compound]
Soluble CD28 (sCD28)
  binding to CD28 (SPR): failed to bind CD28

## CHGHLVPKK (Synthetic scrambled control peptide p1TAsc) [scrambled form of p1TA, reference compound]
[1]
  antagonism of SEB-mediated induction of IL2 and IFN-γ mRNA: lacked antagonist activity
SEB [5]; in vivo
  protection of mice from lethal SEB challenge: failed to provide protection

## FHKHKNPGSPII [pc3]
[1]
  antagonism of SEB-mediated induction of IL2 and IFN-γ mRNA: inhibited
[3]
  effect on SEB-mediated induction of IL10 / IL4 (Th2 response): failed to inhibit induction of IL10
[6]
  toxicity of peptide alone: lacked detectable toxicity
[2]
  induction of Th1 cytokine mRNA by the substance alone (agonist activity): lacked superantigen agonist activity
SEB [5]
  molar excess (ratio) over SEB at which protective in vivo: about equimolar ratio
SEB [5]; in vivo
  mice surviving SEB challenge / group: 7/10

## GEINGSAN (Synthetic peptide p2TC)
[1]
  antagonism of SEB-mediated induction of IL2 and IFN-γ mRNA: inhibited
SEB [5]; in vivo
  protection of mice from lethal SEB challenge: protected mice from lethal challenge

## HVKGKHLCP (Synthetic peptide p1TA)
[1]
  antagonism of SEB-mediated induction of IL2 and IFN-γ mRNA: antagonized
[6]
  concentration without detectable toxicity, relative to that needed for protection: 25 fold
  toxicity of peptide alone: lacked detectable toxicity
[7]
  inhibition of induction of IL2 and IFN-γ mRNA by TSST-1: inhibited
SEB [5]
  molar excess (ratio) over SEB at which protective in vivo: 3.6 fold
SEB [5]; in vivo
  mice surviving SEB challenge / group: 7/10

## IHKPHHHRTPLW (Synthetic peptide pf8)
[1]
  antagonism of SEB-mediated induction of IL2 and IFN-γ mRNA: inhibited

## PAVVLASS (Synthetic peptide p2TB)
[1]
  antagonism of SEB-mediated induction of IL2 and IFN-γ mRNA: inhibited
[3]
  effect on SEB-mediated induction of IL10 / IL4 (Th2 response): left induction of IL10 intact
SEB [5]
  molar excess (ratio) over SEB at which protective in vivo: 2 fold
SEB [5]; in vivo
  protection of mice from lethal SEB challenge: protected mice from lethal challenge

## SHFTHNRHGHST (Synthetic Peptide pe12)
[1]
  antagonism of SEB-mediated induction of IL2 and IFN-γ mRNA: strongly inhibited
[3]
  effect on SEB-mediated induction of IL10 / IL4 (Th2 response): failed to inhibit induction of IL10
[6]
  toxicity of peptide alone: lacked detectable toxicity
[2]
  induction of Th1 cytokine mRNA by the substance alone (agonist activity): lacked superantigen agonist activity
SEB [5]
  molar excess (ratio) over SEB at which protective in vivo: about equimolar ratio
SEB [5]; in vivo
  mice surviving SEB challenge / group: 8/10

## SPMLVAYD [p2TA]
[1]
  antagonism of SEB-mediated induction of IL2 and IFN-γ mRNA: antagonized
[6]
  concentration without detectable toxicity, relative to that needed for protection: 125 fold
  toxicity of peptide alone: lacked detectable toxicity
[7]
  inhibition of induction of IL2 and IFN-γ mRNA by TSST-1: inhibited
SEB [5]
  molar excess (ratio) over SEB at which protective in vivo: 0.8 fold
SEB [5]; in vivo
  mice surviving SEB challenge / group: 8/10

## WHAHPHKKPVVA [pd7]
[1]
  antagonism of SEB-mediated induction of IL2 and IFN-γ mRNA: inhibited
[3]
  effect on SEB-mediated induction of IL10 / IL4 (Th2 response): failed to inhibit induction of IL10
[6]
  toxicity of peptide alone: lacked detectable toxicity
[2]
  induction of Th1 cytokine mRNA by the substance alone (agonist activity): lacked superantigen agonist activity
SEB [5]; in vivo
  mice surviving SEB challenge / group: 4/10

## YESQLCCQL (Synthetic peptide p1TC)
[1]
  antagonism of SEB-mediated induction of IL2 and IFN-γ mRNA: inhibited
SEB [5]; in vivo
  protection of mice from lethal SEB challenge: protected mice from lethal challenge

## YVIDPEPCP (Synthetic peptide p1TB)
[1]
  antagonism of SEB-mediated induction of IL2 and IFN-γ mRNA: inhibited
[3]
  effect on SEB-mediated induction of IL10 / IL4 (Th2 response): left induction of IL10 intact
SEB [5]
  molar excess (ratio) over SEB at which protective in vivo: 3.6 fold
SEB [5]; in vivo
  protection of mice from lethal SEB challenge: protected mice from lethal challenge

## daV Q Y N K K K A T V Q E L Dda ([dA]VQYNKKKATVQELD[dA]) [p14A]
Soluble CD28 (sCD28)
  binding to CD28 (SPR): bind directly to CD28
[1]
  antagonism of SEB-mediated induction of IL2 and IFN-γ mRNA: blocked
[3]
  effect on SEB-mediated induction of IL10 / IL4 (Th2 response): left induction of the Th2-type cytokines IL-10 and IL-4 intact
sCD28 [8]
  effect on binding of anti-CD28 to sCD28 (ELISA): inhibited
[4]
  effect on induction of IFN-γ mRNA by anti-CD3 alone: did not inhibit
  effect on induction of IFN-γ mRNA by anti-CD3 with sB7-2: abrogated
  effect on induction of IFN-γ mRNA by sB7-2 alone: shifted the induction by sB7-2 alone to earlier times; also recorded: stimulated induction significantly
  effect on induction of IL2/IFN-γ mRNA by αCD28 alone: blocked
  effect on induction of IL2/IFN-γ mRNA by αCD28 and αCD3 combined: eliminated virtually in full
sCD28 [9]
  effect on plasmon resonance signal for binding of anti-CD28 to sCD28: reduced
sCD28/sB7-2
  effect on plasmon resonance signal for binding of sCD28 to sB7-2: enhanced significantly
IL10 in human PBMC
  effect on induction of IL10 by αCD28/αCD3: resistant
  effect on induction of IL-10 by sB7-2/anti-CD3: largely resistant
SEB [5]
  molar excess (ratio) over SEB at which protective in vivo: 12 fold
SEB [5]; in vivo
  protection from lethal SEB challenge: 70%

## pSEB(41-61): a peptide that lacks antagonist activity (IDQFLYFDLIYSIKDTKLGNY; UniProt P01552 68-88, looked up, fragment) [reference compound]
sCD28/sB7-2
  effect on plasmon resonance signal for binding of sCD28 to sB7-2: only slightly

## sCD28: recombinant soluble CD28: extracellular domain of human CD28 fused to His6-tagged Fc of human IgG (R&D Systems 342-CD)
SEB [10]
  competition of anti-SEB Ab binding to SEB (ELISA): about 75%
[1]
  antagonism of SEB-mediated induction of IL2 and IFN-γ mRNA: dose-dependent manner
  inhibition of SEB induction of IFN-γ mRNA: about twenty fold
  inhibition of SEB induction of IL-2 mRNA: 3.5 fold
[2]
  induction of Th1 cytokine mRNA by the substance alone (agonist activity): did not induce IFN-γ mRNA
p14A
  inhibition of anti-p14A Ab binding to p14A (ELISA): over 90%
[4]
  effect on induction of IL2/IFN-γ mRNA by αCD28 alone: inhibited
SEB [11]
  inhibition of binding of anti-SEB Ab to SEB: 84%
  reduction of anti-SEB binding to SEB: about 5 fold
